Columns and labels:
[1] = target: 5-HT2A (Homo sapiens, UniProt P28223); format: cell-based; conditions: for Gq agonism for 5-HT2A: agonist mode
[2] = target: 5-HT2B (Homo sapiens, UniProt P41595); assay: cell-based; format: cell-based; conditions: for Gq agonism for 5-HT2B: agonist mode
[3] = target: T1, 5-HT2C (Homo sapiens, UniProt P28335); assay: cell-based; format: cell-based
T1 sequence (P28335 33-458): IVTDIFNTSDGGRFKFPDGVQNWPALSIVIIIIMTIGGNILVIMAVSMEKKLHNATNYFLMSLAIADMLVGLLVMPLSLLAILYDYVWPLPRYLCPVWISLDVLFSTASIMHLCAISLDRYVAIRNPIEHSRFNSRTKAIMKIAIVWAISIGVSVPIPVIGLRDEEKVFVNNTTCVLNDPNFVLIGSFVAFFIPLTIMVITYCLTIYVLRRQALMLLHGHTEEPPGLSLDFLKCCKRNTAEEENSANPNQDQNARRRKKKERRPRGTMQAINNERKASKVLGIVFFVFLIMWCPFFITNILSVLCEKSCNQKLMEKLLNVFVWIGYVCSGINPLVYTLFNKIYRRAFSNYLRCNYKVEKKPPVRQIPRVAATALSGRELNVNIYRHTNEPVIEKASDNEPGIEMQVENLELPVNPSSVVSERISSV

[4] = tested on: overnight fasting male C57BL/6J mice; assay: Acute feeding suppression; format: in vivo; conditions: intraperitoneal; 1857 30 mg/kg, lorcaserin 10 mg/kg; vs vehicle
[5] = target: T2, human 5-HT2C and its mutants (Homo sapiens, UniProt P28335); assay: Tango β-arrestin2 recruitment assay, HTLA cells; format: cell-based; conditions: for β-arrestin2 recruitment agonist activity (Tango): wild-type 5-HT2C, agonist mode
T2 sequence (P28335 33-458): T1 sequence (P28335 33-458)

[6] = tested on: wild-type or mutant 5-HT2C; assay: Radiolabeled ligand binding assay, 3H-mesulergine, transfected CHO cells; set-up: species or system human
[7] = target: T1, 5-HT2C; format: cell-based
[8] = tested on: diet-induced obesity (DIO) mice; assay: DIO mice feeding suppression; format: in vivo
[9] = 30 mg/kg i.p. daily for 10 days
[10] = 30 mg/kg i.p. daily for 10 days, vs vehicle
[11] = 30 mg/kg i.p. daily, from day 5 until end of study

Chain of 5-HT2B (P41595 whole entry): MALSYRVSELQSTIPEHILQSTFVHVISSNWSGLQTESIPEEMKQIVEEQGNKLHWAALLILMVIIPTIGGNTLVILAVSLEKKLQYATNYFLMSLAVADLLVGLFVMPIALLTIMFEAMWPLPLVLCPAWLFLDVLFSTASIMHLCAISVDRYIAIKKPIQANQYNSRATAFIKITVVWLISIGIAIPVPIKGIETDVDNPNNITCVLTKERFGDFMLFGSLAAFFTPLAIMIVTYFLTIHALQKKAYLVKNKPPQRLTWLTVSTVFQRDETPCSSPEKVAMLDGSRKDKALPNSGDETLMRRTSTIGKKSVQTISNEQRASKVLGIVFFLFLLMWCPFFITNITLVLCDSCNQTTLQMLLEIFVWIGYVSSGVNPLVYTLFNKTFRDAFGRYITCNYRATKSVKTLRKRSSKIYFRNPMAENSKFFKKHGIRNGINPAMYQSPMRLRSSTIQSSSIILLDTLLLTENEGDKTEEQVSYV
Chain of 5-HT2A (P28223 whole entry): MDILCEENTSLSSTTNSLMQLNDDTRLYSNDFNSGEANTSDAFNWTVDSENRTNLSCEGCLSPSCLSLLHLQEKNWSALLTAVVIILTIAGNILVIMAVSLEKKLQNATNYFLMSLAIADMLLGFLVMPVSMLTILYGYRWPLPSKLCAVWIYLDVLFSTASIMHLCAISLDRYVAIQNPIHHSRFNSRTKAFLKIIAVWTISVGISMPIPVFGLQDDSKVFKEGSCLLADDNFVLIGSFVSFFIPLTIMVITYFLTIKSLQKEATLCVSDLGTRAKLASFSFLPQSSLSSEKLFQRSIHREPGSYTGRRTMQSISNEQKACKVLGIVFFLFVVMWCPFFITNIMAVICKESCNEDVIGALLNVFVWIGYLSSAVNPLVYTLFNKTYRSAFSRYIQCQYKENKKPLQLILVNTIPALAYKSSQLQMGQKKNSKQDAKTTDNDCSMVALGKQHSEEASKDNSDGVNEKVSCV

COc1cc2c3c(c1OC)-c1ccccc1CC3NCC2 (centres unmarked) [Compound 15781, nornuciferine]
Gq agonism for 5-HT2A [1]: none of them exhibited measurable Gq agonism | IC50 [2]: > 10 µM | Gq agonism for 5-HT2B [2]: none of them exhibited measurable Gq agonism | EC50 [3]: 653 nM | Emax ([3]; HEK-293T, read-out: Emax relative to 5-HT): 65.6%

COc1cc2c3c(c1OC)-c1ccccc1C[C@H]3N(C)CC2 [Compound 15856, Nuciferine]
antagonism of Gq-mediated activity at 5-HT2A [1]: sub-micromolar potency | antagonism of Gq-mediated activity at 5-HT2B [2]: sub-micromolar potency | antagonism of Gq-mediated activity at 5-HT2C [3]: sub-micromolar potency

C[C@H]1CNCCc2ccc(Cl)cc21 [Lorcaserin, lorcaserin, reference compound]
acute food intake suppression [4]: suppressed food intake up to 2 h postinjection | β-arrestin2 recruitment agonist activity (Tango) [5]: full agonist | agonist efficacy class in G protein pathway at 5-HT2C [3]: full agonist

(R)-asimilobine [Compound 1857]
acute food intake suppression [4]: reduced food intake from 30 min to 4 h postinjection | enhancement of binding [6]: 6 fold | β-arrestin2 recruitment agonist activity (BRET) [7]: does not possess agonist activity | antagonism of β-arrestin2 association (BRET) ([7]; agonist lorcaserin (4 μM)): acts as an antagonist for β-arrestin2 association | Gq agonism for 5-HT2A [1]: none of them exhibited measurable Gq agonism | antagonism of β-arrestin signaling (Tango) ([5]; against agonist ergotamine): acts as an antagonist | β-arrestin2 recruitment agonist activity (Tango) [5]: no β-arrestin recruitment activity | Gq agonism for 5-HT2B [2]: none of them exhibited measurable Gq agonism | in vitro potency for 5-HT2C activation lower than that of lorcaserin [3]: 2 orders of magnitude | Emax relative to 5-HT ([3]; Gq-mediated calcium signaling at 5-HT2C): 86.1% | blood glucose relative to vehicle [8, 9]: −20.9% | liver TC and TG levels [8, 9]: decreased liver TC and TG levels | serum total cholesterol (TC) relative to vehicle [8, 9]: −7.9% | serum total triglyceride (TG) relative to vehicle [8, 9]: unchanged | total organ weight of epididymal white adipose tissue (WAT) [8, 10]: −29.3% | total organ weight of inguinal WAT [8, 10]: −46.4% | body weight in DIO mice [8, 11]: weight loss | food intake in DIO mice [8, 11]: Significant reduction of food intake

Source: PMC7047268 (ACS Central Science, 2020)
